# Measurements from patent US7648977B2, “Pharmaceutical composition having a ruthenium oxalato compound and method of using the same” (The University of Hong Kong, priority 2005, dated 2010).
# Experiments:
# HIV-1 RT = HIV-1 RT (Human immunodeficiency virus type 1 group M subtype B, UniProt P04585); conditions: percentage luminescence relative to untreated control
# Protocol: The inhibitory effect of different compounds on HIV-1 RT activities were assayed using a commercial assay kit (Reverse Transcriptase Assay, Chemiluminescent, Roche). […] (30 min.). The ELISA assays were conducted by following the manufacturer's instructions (Eberle and Seibl J. Virol. Methods (1992), 40, 347). In general, the indicated components were added to the corresponding wells of the microtitre plate from the kit and incubated for 1 h at 37° C. The solution in each well was then completely removed and the wells were rinsed five times with 250 μL of washing buffer per well. During each washing step, the washing buffer was left in the wells for a minimum of 30 seconds. The microtitre plate modules were covered and dried with a blotting paper, followed by the incubation with anti-DIG-POD working dilution was added (200 μL per well) for 1 h at 37° C. The solution was discarded followed by the washing and drying steps as described above. The POD substrate was added (200 μL per well) and was incubated at room temperature for 15 min. The chemiluminescent signal was measured and quantified using a microtitre plate chemiluminescence reader. The HIV-1 RT activities were evaluated based on percentage luminescence of the solutions relative to the negative control (untreated population).
# [1] = system: HIV-1 infected Hut/CCR5 cells; experiment: TUNEL assay, cytoprotective activity in HIV-1 infected Hut/CCR5 cells; type: cell-based; conditions: HIV-1 infected Hut/CCR5 cells, 0.5, 5 and 50 μM
# From the text: The TUNEL reaction preferentially labels DNA strand breaks generated during apoptosis. This is done by labeling DNA strand breaks by terminal deoxynucleotidyl transferase (TdT), which catalyzes polymerization of labeled nucleotides to free 3′-OH DNA ends in a template-independent manner (TUNEL-reaction). The TUNEL method (In Situ Cell Death Detection Kit, Fluorescein, Roche) combined with flow cytometry was used for the measurement of apoptosis (Gorczyca et al. Cancer Res. (1993), 53, 1945). The quantitative analysis of 3′-OH ends was performed using the MDADS analysis program (Beckman Coulter).
# HIV-1 infected Hut/CCR5 cells were treated with 2 (0.5, 5, and 50 μM) for 3 days. The cells were fixed (in 4% paraformaldehyde in PBS, pH 7.4) and permeabilisated (0.1% Triton X-100 in 0.1% sodium citrate), The cells were then rinsed twice with PBS and labeled with 50 μL TUNEL reaction mixture (50 μL Enzyme solution +450 μL Label solution) for 60 min. at 37° C. in a humidified atmosphere in dark. The samples were rinsed with PBS three times and resuspended in 1 mL PBS containing 5 μg/mL of PI and 0.1% RNAse. Flow cytometry was performed on a FACScan cytometry. The red (PI) and green (fluorescein) fluorescence emissions from each cell were measured.
# HIV-1(IIIB) = conditions: 0.5-50 μM, viral p24 antigen, FIG. 8
# Protocol: GHOST/CXCR4 and PBMC cells in 24-well plate (5×10^5 cells/well) were pretreated with compounds (400 μL) for an hour at 37° C. and subsequently infected in triplicate with a panel of CCR5-tropic HIV-1 isolates (with the addition of 5 μL of HIV-1 stock to each well, total p24 content=1500 pg) for 3 h. Following infection, the cells were washed to remove residual viral inoculums and cultured in the presence of compounds (400 μL) for 3 or 7 days. Culture supernatants were harvested and viral replication was measured by determination of viral p24 antigen concentration by ELISA (HIV-1 p24 antigen Kit, Beckman Coulter). Compounds were tested in triplicate at 3 concentrations ranging from 0.5-50 μM. AZT was also examined as a reference standard.
# HIV-1(BaL) = conditions: Hut/CCR5 cells, 3 or 7 days, 0.5-50 μM, viral p24 antigen
# Protocol: Following infection, the cells were washed to remove residual viral inoculums and cultured in the presence of compounds (400 μL) for 3 or 7 days. Culture supernatants were harvested and viral replication was measured by determination of viral p24 antigen concentration by ELISA (HIV-1 p24 antigen Kit, Beckman Coulter). Compounds were tested in triplicate at 3 concentrations ranging from 0.5-50 μM.
substance,measurement,setting,value
Na7[Ru4(μ3-O)4(C2O4)6] [Complex 2],inhibition of HIV-1 RT activity,HIV-1 RT,inhibited
same,cytoprotective activity (TUNEL),[1],showed cytoprotective activity
same,inhibition of HIV-1 replication in GHOST/CXCR4 cells,HIV-1(IIIB),inhibited
same,inhibition of HIV-1 replication in PBMC cells,HIV-1(IIIB),inhibited
same,inhibition of HIV-1(BaL) replication,HIV-1(BaL),inhibited
